Experimental data from US11331299B2, “Medicinal use of serrulatane diterpenes” (The University of Sydney, priority 2016, dated 2022).
Read-outs that look alike come from different tables or passages of the source.

System: 280 human cancer cell lines
Test: OncoPanel cell proliferation assay (10-day)
Format: cell-based
Conditions: Homo sapiens; for EC50: read-out: Cell Count EC50; for GI50: read-out: Cell Count GI50; for IC50: read-out: Cell Count IC50
[1] = Caov-3, CaOV3, Female GU - Ovary
[2] = ChaGo-K-1, ChaGoK1, Lung - NSCLC
[3] = D341 Med, CNS - Medulloblastoma
[4] = Detroit 562, Detroit 562, Head and Neck
[5] = DoTc2-4510, DoTc2 4510, Lymphoma
[6] = G292, G-292, clone A141B1, Soft Tissue - Osteosarcoma
[7] = HEL 92.1.7, HEL-92-1-7, Leukemia
[8] = HOS, Soft Tissue - Osteosarcoma
[9] = HT-1080, HT-1080, Soft Tissue - Sarcoma
[10] = HUH-6-clone5, HUH-6 Clone 5, Liver
[11] = Hs 821.T, Soft Tissue - Sarcoma
[12] = Hs 888.Sk, Soft Tissue - Osteosarcoma

Compound: CC(C)=CCC[C@@H]1C(O)Oc2c(C)cc(O)c3c2[C@H]1CC[C@H]3C (stereo partly shown) [Compound 2, 5,18-epoxyserrulat-14-en-8,18-diol]
- EC50 [1]: 10.2 µM
- GI50 [1]: 9.61 µM
- IC50 [1]: 10.2 µM
- EC50 (Capan-2, Capan-2, Pancreas): 8.64 µM
- GI50 (Capan-2, Capan-2, Pancreas): 8.48 µM
- IC50 (Capan-2, Capan-2, Pancreas): 8.64 µM
- EC50 [2]: 8.32 µM
- GI50 [2]: 8.26 µM
- IC50 [2]: 8.32 µM
- EC50 [3]: 19.2 µM
- GI50 [3]: 18.7 µM
- IC50 [3]: 19.2 µM
- EC50 (DB, Lymphoma): 3.23 µM
- GI50 (DB, Lymphoma): 3.24 µM
- IC50 (DB, Lymphoma): 3.25 µM
- EC50 (DBTRG-05MG, CNS - Glioma): 12.2 µM
- GI50 (DBTRG-05MG, CNS - Glioma): 12.8 µM
- IC50 (DBTRG-05MG, CNS - Glioma): 13 µM
- EC50 (DK-MG, CNS - Glioma): 1.64 µM
- GI50 (DK-MG, CNS - Glioma): > 30 µM
- IC50 (DK-MG, CNS - Glioma): > 30 µM
- EC50 (DLD-1, DLD-1, Colon): 10.7 µM
- GI50 (DLD-1, DLD-1, Colon): 11.2 µM
- IC50 (DLD-1, DLD-1, Colon): 11.2 µM
- EC50 (DMS-53, DMS53, Lung - SCLC): 5.91 µM
- GI50 (DMS-53, DMS53, Lung - SCLC): 5.75 µM
- IC50 (DMS-53, DMS53, Lung - SCLC): 5.95 µM
- EC50 (DMS-114, DMS114, Lung - SCLC): 11.5 µM
- GI50 (DMS-114, DMS114, Lung - SCLC): 13.1 µM
- IC50 (DMS-114, DMS114, Lung - SCLC): 13.8 µM
- EC50 (DOHH-2, DOHH-2, Lymphoma): 3.24 µM
- GI50 (DOHH-2, DOHH-2, Lymphoma): 3.24 µM
- IC50 (DOHH-2, DOHH-2, Lymphoma): 3.24 µM
- EC50 (DU-145, DU145, Prostate): 21 µM
- GI50 (DU-145, DU145, Prostate): 20.7 µM
- IC50 (DU-145, DU145, Prostate): 21 µM
- EC50 (Daoy, CNS - Medulloblastoma): 8.64 µM
- GI50 (Daoy, CNS - Medulloblastoma): 8.64 µM
- IC50 (Daoy, CNS - Medulloblastoma): 8.65 µM
- EC50 (Daudi, Lymphoma): 3.93 µM
- GI50 (Daudi, Lymphoma): 3.92 µM
- IC50 (Daudi, Lymphoma): 3.93 µM
- EC50 [4]: 14.5 µM
- GI50 [4]: 14.4 µM
- IC50 [4]: 14.5 µM
- EC50 [5]: 6.07 µM
- GI50 [5]: 5.84 µM
- IC50 [5]: 6.07 µM
- EC50 (EB2, Lymphoma): 23.3 µM
- GI50 (EB2, Lymphoma): 23 µM
- IC50 (EB2, Lymphoma): 23.3 µM
- EC50 (EB-3, Lymphoma): 9.72 µM
- GI50 (EB-3, Lymphoma): 9.71 µM
- IC50 (EB-3, Lymphoma): 9.72 µM
- EC50 (EFM-19, EFM-19, Breast): 11.2 µM
- GI50 (EFM-19, EFM-19, Breast): 10.6 µM
- IC50 (EFM-19, EFM-19, Breast): 11.2 µM
- EC50 (EM-2, Leukemia): 10.8 µM
- GI50 (EM-2, Leukemia): 10.8 µM
- IC50 (EM-2, Leukemia): 10.8 µM
- EC50 (FaDu, Head and Neck): 8.66 µM
- GI50 (FaDu, Head and Neck): 8.66 µM
- IC50 (FaDu, Head and Neck): 8.66 µM
- EC50 [6]: 8.8 µM
- GI50 [6]: 8.57 µM
- IC50 [6]: 8.8 µM
- EC50 (G-361, G-361, Skin (Melanoma)): 11.7 µM
- GI50 (G-361, G-361, Skin (Melanoma)): 11.8 µM
- IC50 (G-361, G-361, Skin (Melanoma)): 11.8 µM
- EC50 (G-401, G-401, Kidney): 26 µM
- GI50 (G-401, G-401, Kidney): 26.2 µM
- IC50 (G-401, G-401, Kidney): 26.2 µM
- EC50 (GA-10, GA-10, Lymphoma): 3.72 µM
- GI50 (GA-10, GA-10, Lymphoma): 3.73 µM
- IC50 (GA-10, GA-10, Lymphoma): 3.73 µM
- EC50 (H4, CNS - Glioma): 3.06 µM
- GI50 (H4, CNS - Glioma): > 30 µM
- IC50 (H4, CNS - Glioma): > 30 µM
- EC50 (HCT-15, HCT-15, Colon): 8.64 µM
- GI50 (HCT-15, HCT-15, Colon): 9.48 µM
- IC50 (HCT-15, HCT-15, Colon): 9.49 µM
- EC50 (HCT-116, HCT-116, Colon): 6.68 µM
- GI50 (HCT-116, HCT-116, Colon): 6.67 µM
- IC50 (HCT-116, HCT-116, Colon): 6.68 µM
- EC50 (HEC-1-A, Female GU - Uterus): 12.1 µM
- GI50 (HEC-1-A, Female GU - Uterus): 12 µM
- IC50 (HEC-1-A, Female GU - Uterus): 12.1 µM
- EC50 [7]: 13.4 µM
- GI50 [7]: 13.4 µM
- IC50 [7]: 13.4 µM
- EC50 (HLE, Liver): 10 µM
- GI50 (HLE, Liver): 16 µM
- IC50 (HLE, Liver): 16.4 µM
- EC50 (HLF, Liver): 13.7 µM
- GI50 (HLF, Liver): 15.6 µM
- IC50 (HLF, Liver): 15.7 µM
- EC50 (HMCB, Skin (Melanoma)): 6.68 µM
- GI50 (HMCB, Skin (Melanoma)): 6.57 µM
- IC50 (HMCB, Skin (Melanoma)): 6.68 µM
- EC50 [8]: 4.82 µM
- GI50 [8]: 4.81 µM
- IC50 [8]: 4.82 µM
- EC50 (HPAF-II, Pancreas): 9.46 µM
- GI50 (HPAF-II, Pancreas): 9.6 µM
- IC50 (HPAF-II, Pancreas): 9.62 µM
- EC50 (HT1197, HT-1197, Bladder): 10.7 µM
- GI50 (HT1197, HT-1197, Bladder): 10.3 µM
- IC50 (HT1197, HT-1197, Bladder): 10.7 µM
- EC50 (HT, Lymphoma): 6.51 µM
- GI50 (HT, Lymphoma): 6.43 µM
- IC50 (HT, Lymphoma): 6.51 µM
- EC50 (HT-3, Female GU - Cervix): 17.6 µM
- GI50 (HT-3, Female GU - Cervix): 18.6 µM
- IC50 (HT-3, Female GU - Cervix): 19.3 µM
- EC50 (HT-29, HT-29, Colon): 19.5 µM
- GI50 (HT-29, HT-29, Colon): 19.4 µM
- IC50 (HT-29, HT-29, Colon): 19.5 µM
- EC50 [9]: 3.31 µM
- GI50 [9]: 3.3 µM
- IC50 [9]: 3.31 µM
- EC50 (HT-1376, HT1376, Bladder): 4.71 µM
- GI50 (HT-1376, HT1376, Bladder): 4.47 µM
- IC50 (HT-1376, HT1376, Bladder): 4.71 µM
- EC50 [10]: 15.5 µM
- GI50 [10]: 15.3 µM
- IC50 [10]: 15.5 µM
- EC50 (HeLa, Female GU - Cervix): 16.6 µM
- GI50 (HeLa, Female GU - Cervix): 16.5 µM
- IC50 (HeLa, Female GU - Cervix): 16.6 µM
- EC50 (HepG2, HepG2, Liver): 6.74 µM
- GI50 (HepG2, HepG2, Liver): 6.86 µM
- IC50 (HepG2, HepG2, Liver): 6.95 µM
- EC50 (Hs 229.T, Lung - NSCLC): 29.3 µM
- GI50 (Hs 229.T, Lung - NSCLC): 28.6 µM
- IC50 (Hs 229.T, Lung - NSCLC): 29.8 µM
- EC50 (Hs 294T, Skin (Melanoma)): 7.01 µM
- GI50 (Hs 294T, Skin (Melanoma)): 6.72 µM
- IC50 (Hs 294T, Skin (Melanoma)): 7.01 µM
- EC50 (Hs 445, Hs 445, Lymphoma): 4.34 µM
- GI50 (Hs 445, Hs 445, Lymphoma): 4.23 µM
- IC50 (Hs 445, Hs 445, Lymphoma): 4.34 µM
- EC50 (Hs 611.T, Lymphoma): 10.7 µM
- GI50 (Hs 611.T, Lymphoma): 10.6 µM
- IC50 (Hs 611.T, Lymphoma): 10.7 µM
- EC50 (Hs 683, Hs 683, CNS - Glioma): 29.8 µM
- GI50 (Hs 683, Hs 683, CNS - Glioma): 28.3 µM
- IC50 (Hs 683, Hs 683, CNS - Glioma): 29.8 µM
- EC50 (Hs 688(A).T, Skin (Melanoma)): 11.6 µM
- GI50 (Hs 688(A).T, Skin (Melanoma)): 12.2 µM
- IC50 (Hs 688(A).T, Skin (Melanoma)): 13.2 µM
- EC50 (Hs746T, HS 746T, Stomach): > 30 µM
- GI50 (Hs746T, HS 746T, Stomach): > 30 µM
- IC50 (Hs746T, HS 746T, Stomach): > 30 µM
- EC50 (Hs766T, Hs 766T, Pancreas): 28.4 µM
- GI50 (Hs766T, Hs 766T, Pancreas): 26.2 µM
- IC50 (Hs766T, Hs 766T, Pancreas): 28.4 µM
- EC50 [11]: > 30 µM
- GI50 [11]: 13.9 µM
- IC50 [11]: > 30 µM
- EC50 [12]: 28.3 µM
- GI50 [12]: 27.9 µM
- IC50 [12]: 28.5 µM
- EC50 (Hs 934.T, Skin (Melanoma)): > 30 µM
- GI50 (Hs 934.T, Skin (Melanoma)): 24.1 µM
- IC50 (Hs 934.T, Skin (Melanoma)): > 30 µM
- EC50 (Hs 936.T(C1), Skin (Melanoma)): 3.62 µM
- GI50 (Hs 936.T(C1), Skin (Melanoma)): 3.74 µM
- IC50 (Hs 936.T(C1), Skin (Melanoma)): 3.76 µM
- EC50 (Hs-578T, Hs 578T, Breast): 28.7 µM
- GI50 (Hs-578T, Hs 578T, Breast): 28.2 µM
- IC50 (Hs-578T, Hs 578T, Breast): 28.7 µM
- EC50 (HuCCT-1, HuCCT1, Liver): 22.6 µM
- GI50 (HuCCT-1, HuCCT1, Liver): 22.6 µM
- IC50 (HuCCT-1, HuCCT1, Liver): 22.6 µM
- EC50 (HuP-T4, HuP-T4, Pancreas): > 30 µM
- GI50 (HuP-T4, HuP-T4, Pancreas): > 30 µM
- IC50 (HuP-T4, HuP-T4, Pancreas): > 30 µM
- EC50 (J82, Bladder): 12.9 µM
- GI50 (J82, Bladder): 12.7 µM
- IC50 (J82, Bladder): 12.9 µM
- EC50 (JAR, Placenta): > 30 µM
- GI50 (JAR, Placenta): > 30 µM
- IC50 (JAR, Placenta): > 30 µM
- EC50 (JEG-3, JEG-3, Placenta): > 30 µM
- GI50 (JEG-3, JEG-3, Placenta): > 30 µM
- IC50 (JEG-3, JEG-3, Placenta): > 30 µM
- EC50 (JIYOYE, Lymphoma): 17.8 µM
- GI50 (JIYOYE, Lymphoma): 17.7 µM
- IC50 (JIYOYE, Lymphoma): 17.8 µM
- EC50 (JeKo-1, JeKo-1, Lymphoma): 4.48 µM
- GI50 (JeKo-1, JeKo-1, Lymphoma): 4.47 µM
- IC50 (JeKo-1, JeKo-1, Lymphoma): 4.48 µM
- EC50 (Jurkat, Leukemia): 2.66 µM
- GI50 (Jurkat, Leukemia): 2.65 µM
- IC50 (Jurkat, Leukemia): 2.66 µM
- EC50 (K562, K562, Leukemia): 10.2 µM
- GI50 (K562, K562, Leukemia): 10.1 µM
- IC50 (K562, K562, Leukemia): 10.2 µM
- EC50 (KATO III, Stomach): 8.98 µM
- GI50 (KATO III, Stomach): 16.6 µM
- IC50 (KATO III, Stomach): 16.8 µM
- EC50 (KHOS-240S, Soft Tissue - Osteosarcoma): 4.59 µM
